Laboratory results published in patent US20120252119A1, “METHODS FOR THE COLLECTION AND MATURATION OF OOCYTES” (priority 2009, published 2012).

Legend:
[1] = tested on: cAMP content of the whole COCs; experiment: cAMP content of bovine COCs, radioimmunoassay; assay type: cell-based; conditions: agent alone, up to 2 hours, FIG. 2
Procedure: Oocytes were aspirated with their cumulus vestments intact (COCs). A subset of the COCs were denuded of their cumulus vestment prior to assay (DO). Aspiration and subsequent selection procedures (pre-IVM phase) were performed for 2 hours where oocytes (COCs and DOs) were processed in various media (termed “pre-IVM phase media” or “pre-IVM media”). These included processing of oocytes either in follicular fluid, or in two types of collection medium. […] Cyclic AMP content of COCs and denuded oocytes (DOs), i.e. those oocytes cultured as COCs but denuded of their cumulus vestment prior to assay, were measured using a radioimmunoassay method described and validated previously (Reddoch et al., 1986, Endocrinology 119: 879-886). […] Briefly, supernatants were collected, evaporated, resuspended in assay buffer (50 mM sodium acetate, pH 5.5) and acetylated by the addition of triethylamine (AJAX Chemicals, Sydney, Australia) and acetic anhydride (BDH Laboratory Supplies, Poole, England) 2:1 v/v. cAMP was measured in duplicates after appropriate dilution. ^125I-labelled cAMP (specific activity of 2175 Ci/mM) and cAMP antibody (as prepared by Reddoch et al supra) were added to samples and left overnight at 4° C. […] The supernatant was removed and the pellet dried and counted using a gamma counter. […]

human oocytes = experiment: Human oocyte IVM, meiosis score; assay type: cell-based; conditions: for % GV / % GVBD / % PB: IVM with 0.1 μM cilostamide and FSH
Procedure: Immature human cumulus-oocyte complexes (COC) were collected from young, healthy women (not from IVF patients). […] Oocyte pick-up was performed when the lead ovarian follicle reached 12 mm. Immature oocytes were then stratified to various treatments during either the Pre-IVM or IVM periods, as detailed below. In addition, time of removal of somatic cells from oocytes (denuding) during the oocyte maturation period was examined. The following trials were conducted: • Dose of PDE3-inhibitor (cilostamide) during IVM: 0 versus 0.1 versus 1.0 μM • cAMP modulators during Pre-IVM: control versus IBMX versus IBMX+forskolin • Effect of time of oocyte denuding on embryo development: 30 versus 40 versus 44-48 hours
At the oocyte pick-up, COC were collected immediately into pre-IVM treatments in VitroCollect medium (Cook Australia, Brisbane, Australia) and held for one hour. Following pre-IVM, COC were washed and then transferred to IVM treatments (e.g. dose of cilostamide) in VitroMat medium (Cook) and matured under standard conditions. At the various times post-denuding, oocytes were monitored for maturation (polar body [PB] extrusion). At the end of maturation (48 hours) a final meiosis score was given. As oocytes matured they were inseminated using standard intra-cytoplasmic sperm injection (ICSI) procedures using donor sperm. 24 hours later fertilisation rates were determined. Embryos were cultured for up to 6 days until developmental arrest using standard procedures.

bovine oocytes [2] = experiment: Bovine in vitro fertilization and embryo culture (cleavage, blastocyst development); assay type: cell-based
Procedure: At 24 or 30 hours after IVM, COCs were washed twice using Bovine VitroWash (Cook Australia), and transferred to insemination dishes containing in vitro fertilisation (IVF) medium (Bovine VitroFert, Cook Australia) supplemented with penicillamine (0.2 mM; Sigma), hypotaurine (0.1 mM; Sigma), and heparin (2 mg/ml; Sigma). Frozen semen from a single bull of proven fertility was used for insemination. Briefly, thawed semen was layered over a discontinuous (45%: 90%) Percoll gradient (Amersham Bioscience) and centrifuged for 20-25 minutes at 700 g. The supernatant was removed and the sperm pellet was washed with 500 μl Bovine VitroWash and centrifuged for a further 5 minutes at 200 g. […] Embryos were assessed for quality at Day 8 according to the definitions presented in Stingfellow and Seidel, 1998, Manual of the International Embryo Transfer Society. […]
Therefore, cumulus-oocyte complexes (COCs) were aspirated and selected in either follicular fluid, collection medium or collection medium supplemented with 100 μM forskolin (FSK) and 500 μM IBMX for 2 hours. […] Oocyte developmental capacity was then assessed after in vitro fertilization and embryo development was assessed by the cleavage rate and blastocyst rate on day 8. […]

bovine oocytes [3] = experiment: Oocyte nuclear morphology assessment (GV configuration, GVBD, meiotic progression); assay type: cell-based
Procedure: At the end of the incubation, COCs were denuded and oocytes were fixed for 30 min in 4% paraformaldehyde in PBS (pH 7.4). Oocytes were then permeabilized in 0.1% Triton X-100 in 0.1% sodium citrate for 1 hour, then transferred to 0.001% 4′,6-diamidino-2-phenylindole (DAPI), a fluorescence stain for nuclear material, for 15 min. Oocytes were rinsed 3 times in PBS+0.03% BSA, mounted on slides and evaluated for nuclear status at 400× using an Olympus fluorescence microscope. Stages of germinal vesicle (GV) and subsequent meiotic development were assessed based on known techniques (Chohan and Hunter, 2003, Anim. Reprod. Sci. 76: 43-51). In brief, GV chromatin of bovine oocytes was classified into: GV I—condensed filamentous chromatin around the nucleolus and nuclear membrane; GV II—filamentous chromatin surrounding the nucleolus; GV III—filamentous chromatin clumps are distributed in the nucleus and the nucleolus has disappeared; GV IV—chromatin has condensed into a thick clump; Early diakenesis-chromatin beginning to condense into a single lump; Diakenesis-chromatin has condensed into a single lump; Metaphase I—tetrads are aligned on the spindle; and Metaphase II—the metaphase chromatin is evident as well as a small chromatin-containing polar body.
Oocytes were then fixed and assessed for meiotic progression and classified as GV (germinal vesical intact—still under meiotic arrest) or GVBD (germinal vesical breakdown—resumption of meiosis). A mean number of 45 oocytes were used in each treatment group and time-point from four replicate experiments. The presence of letters (a or b) above each column indicate a statistical difference between the means as determined by ANOVA analysis followed by Bonferronni's post hoc test, P<0.05.
Oocytes were exposed to pre-IVM phase media comprising pure follicular fluid, collection medium, or collection medium supplemented with cAMP modulators (forskolin and IBMX) (A), followed by extended culture in the presence (C; E) or absence (B; D) of the type-3 PDE inhibitor, cilostamide (20 μM), plus follicle stimulating hormone. Oocytes were then fixed and assessed for GV configuration at 2, 5 and 9 hours. A mean number of 40 oocytes were used in each treatment group and time-point from four replicate experiments.
As indicated above, oocytes were aspirated and selected in either follicular fluid, collection medium or collection medium supplemented with 100 μM forskolin (FSK) and 500 μM IBMX for 2 hours. […] Oocytes were then fixed and assessed for meiotic progression at 20, 24 and 28 hours. A mean number of 45 oocytes were used in each treatment group and time-point from four replicate experiments.

[4] = tested on: oocyte-cumulus cell gap junctional communication; experiment: Oocyte-cumulus cell gap junctional communication assay (calcein transfer); assay type: cell-based, bovine; conditions: after 3 hours of IVM culture post pre-IVM phase, FIG. 7
Procedure: Cumulus-oocyte gap junctional communication (GJC) was measured by quantitative fluorescence microscopy of calcein transfer to the oocyte as described previously (Thomas et al., 2004, In “Biol. Reprod.”, pp 1142-1149). GJC was measured either after 2 hours of pre-IVM phase or followed by an additional 3 hours of IVM with or without cilostamide (20 μM). A mean number of 10-12 oocytes were used in each treatment group in each of four replicate experiments. After culture, COCs were transferred to a solution of 1 μM calcein-AM (3′,6′-di(O-acetyl)-2′,7′-bis[N,N-bis(carboxymethyl)amino methyl]-fluorescein, tetraacetoxy methyl ester; C-3100; Molecular Probes; Eugene, Oreg., USA) freshly prepared in a BSA-free Bovine VitroCollect (Cook Australia) supplemented with polyvinyl alcohol (PVA; 0.3 mg/ml). […] Prior to fluorescence microphotometry, COCs were completely denuded of their surrounding cumulus cells using vigorous pipetting so that only dye confined within the denuded oocyte after transport via gap junctions was measured. Within 30 minutes of denuding, the intra-oocyte fluorescence emission of calcein in oocytes was measured using a fluorophotometric-inverted microscope (Leica, Wetzlar, Germany). […]

[5] = tested on: FSH-induced oocyte maturation; experiment: EGFR kinase inhibitor on FSH-induced oocyte maturation in presence of cilostamide; assay type: cell-based, bovine
Procedure: The basic oocyte maturation medium (also referred to as the “IVM medium” or “IVM phase medium”) used for the IVM phase was a bovine maturation medium (termed Bovine VitroMat, Cook Australia), a medium formulated to closely replicate the ionic composition of bovine follicular fluid. Where indicated, the type-3 PDE specific inhibitor cilostamide (20 μM; Biomol Plymouth Meeting, Pa.) or the epidermal growth factor receptor (EGFR) kinase inhibitor, AG1478 (Alexis Biochemicals, San Diego, Calif.), were added to the IVM medium from a millimolar stock solution stored at −20° C. dissolved in DMSO. […]
At the end of the incubation, COCs were denuded and oocytes were fixed for 30 min in 4% paraformaldehyde in PBS (pH 7.4). Oocytes were then permeabilized in 0.1% Triton X-100 in 0.1% sodium citrate for 1 hour, then transferred to 0.001% 4′,6-diamidino-2-phenylindole (DAPI), a fluorescence stain for nuclear material, for 15 min. Oocytes were rinsed 3 times in PBS+0.03% BSA, mounted on slides and evaluated for nuclear status at 400× using an Olympus fluorescence microscope. Stages of germinal vesicle (GV) and subsequent meiotic development were assessed based on known techniques (Chohan and Hunter, 2003, Anim. Reprod. Sci. 76: 43-51). […]
Oocytes were then fixed and assessed for meiotic progression at 24 hours. […]

Q: How did the “COC cAMP levels during pre-IVM” value [1] turn out when `CC(C)Cn1c(=O)n(C)c(=O)c2[nH]cnc21` [IBMX, 3-isobutyl 1-methylxanthine] was run?
A: The value was “maintained cAMP levels for 2 hours”.

Q: What about the “% GV” value (human oocytes; 36-40 hours) of the same compound?
A: The value was 10.3%.

Q: What about the “% GVBD” value (human oocytes; 36-40 hours) of the same compound?
A: The value was 43.6%.

Q: And the “% PB” value (human oocytes; 36-40 hours)?
A: The value was 46.2%.

Q: And the “% GV” value (human oocytes; 42-44 hours)?
A: The value was 9.4%.

Q: And the “% GVBD” value (human oocytes; 42-44 hours)?
A: Its value is 28.1%.

Q: And the “% PB” value (human oocytes; 42-44 hours)?
A: The value was 62.5%.

Q: What about the “% GV” value (human oocytes; 30 hours) of the same compound?
A: Its value is 11.1%.

Q: And the “% GVBD” value (human oocytes; 30 hours)?
A: Its value is 48.1%.

Q: And the “% PB” value (human oocytes; 30 hours)?
A: Its value is 40.7%.

Q: And the “% GV” value (human oocytes; 48 hours)?
A: The value was 10.3%.

Q: What about the “% GVBD” value (human oocytes; 48 hours) of the same compound?
A: Its value is 28.2%.

Q: What about the “% PB” value (human oocytes; 48 hours) of the same compound?
A: Its value is 61.5%.

Q: What about the “development to the blastocyst stage” value (bovine oocytes [2]; 30-60 minutes pre-IVM, IVM with 20 μM cilostamide, FIG. 11B) of the same compound?
A: The value was “significantly higher than control”.

Q: For `CN(C(=O)CCCOc1ccc2[nH]c(=O)ccc2c1)C1CCCCC1` [cilostamide], which “rates of GVBD” value (bovine oocytes [3]; 2 h pre-IVM, 7 h IVM with FSH and cilostamide 20 μM, all pre-IVM treatments, FIG. 5) is on record?
A: Its value is “significantly lowered the rates of GVBD”.

Q: And the “oocytes at GV IV” value (bovine oocytes [3]; 9 hours, collection medium lacking cAMP modulators, 7 h IVM+cilostamide, FIG. 6E)?
A: Its value is 51%±10.

Q: What about the “oocytes at M I stage” value (bovine oocytes [3]; 20 hours of IVM with cilostamide, absence of FSH, FIG. 8A) of the same compound?
A: The value was 36%±4.

Q: What about the “oocytes at M I stage” value (bovine oocytes [3]; 20 hours of IVM+cilostamide, presence of FSH, FIG. 8B) of the same compound?
A: The value was 21%±4.

Q: And the “oocytes progressed to M II stage” value (bovine oocytes [3]; 24 hours of IVM with cilostamide, absence of FSH, FIG. 8A)?
A: Its value is 50%.

Q: And the “oocytes arrested at the M I stage” value (bovine oocytes [3]; cilostamide, absence of FSH, 24 hours of culture, FIG. 8A)?
A: The value was 40-50%.

Q: And the “levels of gap junctional communication” value [4]?
A: Its value is “had no effect in maintaining the level of gap junctional communication”.

Q: And the “effect of dose on resumption of meiosis” value (human oocytes; cilostamide 0.1 μM)?
A: The value was “non-inhibiting”.

Q: What about the “Germinal Vesicle Breakdown” value (human oocytes; cilostamide 0.1 μM during IVM (n = 39)) of the same compound?
A: The value was 44%.

Q: What about the “effect of dose on resumption of meiosis” value (human oocytes; cilostamide 1.0 μM) of the same compound?
A: Its value is “inhibiting dose”.

Q: What about the “Germinal Vesicle Breakdown” value (human oocytes; cilostamide 1.0 μM during IVM (n = 38)) of the same compound?
A: The value was 13%.

Q: What about the “% Blastocysts” value (bovine oocytes [2]; collection phase CM without cAMP modulators, IVM +cilostamide, maturation time 24) of the same compound?
A: Its value is 22%.

Q: Which results are given for `COc1cc2ncnc(Nc3cccc(Cl)c3)c2cc1OC` [AG1478]?
A: maturation percentage ([5]; FSH 100 mlU, cilostamide 20 μM, increasing doses of AG1478, 24 hours, from >80% without, FIG. 10): approximately 5%; meiotic recovery of FSH and cilostamide treated COCs ([5]; increasing doses of AG1478): completely prevented the meiotic recovery
